Assay results: the SangsterLogP compilation
Residues, ends and D or L forms follow the SMILES beside them. *: point of attachment. NHtBu = CC(C)(C)N*

Experiments:
[1] = method code SF, from DOI: 10.1097/00004424-199009001-00048; details: pH 7.4
[2] = method code SF-AS, from DOI: 10.1021/jm00085a014, PMID: 1560439; details: pH 7.4
[3] = method code SF-HPLC, from DOI: 10.1002/ps.2780310207
[4] = not given; remark: listed apart in the source
[5] = method code SF, from DOI: 10.1021/jm5019252, PMID: 25906180; details: pH 7.4
[6] = method code SF-RC, from DOI: 10.1021/jm00238a003, PMID: 1120999; details: pH 7.0
[7] = not given; remark: listed apart in the source
[8] = not given; remark: listed apart in the source
[9] = method code SF-AS, from DOI: 10.1016/j.ejmech.2015.02.036, PMID: 25728022; details: pH 7.4
[10] = not given; remark: listed apart in the source
[11] = method code SF-AS, from DOI: 10.1039/p29900001191; details: pH 12.0
[12] = method code SF-AS, from DOI: 10.1135/cccc19881862
[13] = not given; remark: listed apart in the source
[14] = method code SF-RC, from DOI: 10.1023/a:1015846100305, PMID: 1788157; details: pH 7.3
[15] = method code SF-AS, from PMID: 578762
[16] = method code SF-GLC, from DOI: 10.1016/0048-3575(76)90072-9
[17] = method code SF-AS, from DOI: 10.1080/10826076.2011.619030
[18] = not given; remark: listed apart in the source
[19] = not given; remark: listed apart in the source
[20] = not given; remark: listed apart in the source
[21] = method code SF-RC, from DOI: 10.1016/s0969-8043(00)00269-4, PMID: 11200881; details: pH 7.4
[22] = not given; remark: listed apart in the source

Molecule `O=C(NCCO)c1c(I)c(C(=O)NCCO)c(I)c(N(CC(O)CO)C(=O)C(O)CO)c1I` (stereo unspecified) has a logD [1] of -2.64.
With `COc1ccc(-c2cc(C#N)c(N3CCOCC3)nc2C)cc1` the logP was 4.4.
`CCc1[nH]c(=O)n(C(C)=O)c1C(=O)c1ccc(-n2ccnc2C)cc1` showed a logD [2] of 1.42.
Molecule `COc1ccc(-c2cc(C#N)c(Cl)nc2C)cc1` has a logP of 3.38.
With `CCCC(Cc1ccccn1)c1ccc(F)cc1` (stereo unspecified) the logP [3] was 2.61.
Work on `c1ccc2c(c1)nnn2C12CC3CC1CCC2C3` (stereo unspecified) yielded a logP [4] of 3.52.
`CN(C(=O)Oc1ccc(O)c(C(=O)NCc2cccnc2)c1)c1ccccc1` gave a logD [5] of 2.95.
With `CCCCCCCC(=O)OC[C@H]1O[C@@H](n2ccc(N)nc2=O)[C@@H](O)[C@@H]1O` the logD [6] was 1.6.
In the case of `Cc1nc(N2CCOCC2)c(C#N)cc1-c1ccccc1`, the logP is reported as 3.65.
In the case of `COC(=O)C1=C(C)NC(C)=C(C(=O)OC/C=C/c2ccccc2)C1c1cccc([N+](=O)[O-])c1` (stereo unspecified), the logP [7] is reported as 4.26.
Molecule `Clc1ccccc1-c1cccc(Cl)c1Cl` has a logP [8] of 5.31.
`C=CCn1c(C)nc2cc(Nc3nc(N4CCCCC4)nc4[nH]cnc34)ccc21` gave a logD [9] of 1.55.
Molecule `CCCc1onc(C)c1N=C1C=C(O)C(=O)c2ccccc21` has a logP [10] of 2.52.
Molecule `CCc1cc(-c2ccccc2)nnc1NCCN1CCOCC1` has a logD [11] of 2.53.
`CC(CC(=O)c1ccc(-c2ccc(-c3ccc(F)cc3F)cc2)cc1)C(=O)O` (stereo unspecified) gave a logD ([12]; pH 3.5) of 3.78.
`CCC(=O)n1c(C(=O)c2ccc(-n3ccnc3C)cc2)c(CC)[nH]c1=O` showed a logD [2] of 1.72.
Work on `CCCN1CC(C)n2c(nc3ccccc3c2=O)C1C` (stereo unspecified) yielded a logP [13] of 1.45.
`CC(=O)N[C@@H](C)C(=O)N[C@@H](C)C(=O)N[C@@H](C)C(=O)NC(C)(C)C` gave a logD [14] of -0.51.
In the case of `Cc1nc(Cl)c(C#N)cc1-c1ccccc1`, the logP is reported as 3.24.
With `CCOC(=O)C=C1NC(=O)C(N2CCCCC2)S1` (stereo in doubt) the logD ([15]; pH 5.9) was 2.3.
With `O=C(NCC(O)CO)c1c(I)c(N(CCO)C(=O)CO)c(I)c(N(CCO)C(=O)CO)c1I` (stereo unspecified) the logD [1] was -2.55.
Molecule `Fc1ccc(C2(Cn3cncn3)CC2)cc1` has a logP [3] of 1.54.
Work on `CCOC(=O)CN(C(=O)CCl)c1ccccc1CC` yielded a logP [16] of 2.57.
`CC1(C)OC2C(CO)OC(n3ccc(=O)n(Cc4ccccc4)c3=O)C2O1` (stereo unspecified) gave a logP [17] of 1.82.
`COC(=O)c1cc(OC(=O)N(c2ccccc2)c2ccccc2)ccc1O` gave a logD [5] of 4.46.
With `Nc1ccn(C2OC(COC(=O)C3CCCCC3)C(O)C2O)c(=O)n1` (stereo unspecified) the logD [6] was 0.8.
`Clc1ccc(-c2c(Cl)ccc(Cl)c2Cl)c(Cl)c1` gave a logP [8] of 6.31.
In the case of `CN(C(=O)Oc1ccc(O)c(C(=O)NCc2ccccc2)c1)c1ccccc1`, the logD [5] is reported as 4.19.
`CC(=O)NC(C)C(=O)N1CCCC1C(=O)NC(C)C(=O)NC(C)(C)C` (stereo not drawn) (Ac-Ala-Pro-Ala-NHtBu; configuration not given here) gave a logD [14] of -0.39.
Molecule `CCCN1C(=O)C(N2CCCCC2)S/C1=C\C(=O)OCC` (stereo unspecified) has a logD ([15]; pH 7.4) of 2.93.
Work on `COCC(=O)Nc1c(I)c(C(=O)NCC(O)CO)c(I)c(C(=O)N(C)CC(O)CO)c1I` (stereo unspecified) yielded a logD [1] of -2.05.
With `CC(CC(=O)c1ccc(-c2ccc(-c3ccccc3)cc2)cc1)C(=O)O` (stereo unspecified) the logD ([12]; pH 3.5) was 3.4.
For `O=C(OCc1ccccc1)OC1C(CO)OC(n2ccc(=O)[nH]c2=O)C1OC(=O)OCc1ccccc1` (stereo unspecified), the logP [17] was 2.96.
Molecule `Cc1cc(-c2ccccc2)nnc1NCCN1CCOCC1` has a logD [11] of 2.03.
In the case of `CCOC(=O)CN(C(=O)CCl)c1ccccc1OC`, the logP [16] is reported as 1.78.
In the case of `CC(CC(=O)O)CC(=O)c1ccc(-c2ccc(-c3ccccc3)cc2)cc1` (stereo unspecified), the logD ([12]; pH 3.5) is reported as 3.82.
In the case of `O=C(Oc1ccc(F)cc1)C1OC(O)C(O)C(O)C1O` (stereo unspecified), the logP [18] is reported as -0.42.
Work on `CCc1[nH]c(=O)n(C(=O)c2ccccc2)c1C(=O)c1ccc(-n2ccnc2C)cc1` yielded a logD [2] of 1.96.
`O=C1CN=C(c2ccc(Br)cc2)c2cc(Br)ccc2N1` showed a logP [19] of 4.08.
For `CCCC(Cn1cncn1)c1ccc(F)cc1` (stereo unspecified), the logP [3] was 2.01.
With `c1ccc(-c2cc(-c3ccccc3)c(NCCN3CCOCC3)nn2)cc1` the logD [11] was 3.38.
In the case of `CCc1[nH]c(=O)[nH]c1C(=O)c1ccc(-n2ccnc2C)cc1`, the logD [2] is reported as 0.85.
Work on `O=C1CN=C(c2ccc(Cl)cc2)c2cc(Br)ccc2N1` yielded a logP [19] of 3.78.
`COc1ccc(CCN2CCC(Nc3nc4ccccc4n3Cc3ccc(F)cc3)CC2)cc1` showed a logP [20] of 5.7.
`CC(=O)N[C@@H](C)C(=O)N[C@@H](Cc1ccccc1)C(=O)N[C@@H](C)C(=O)NC(C)(C)C` (Ac-Ala-Phe-Ala-NHtBu) gave a logD [14] of 1.01.
Work on `CCOC(=O)/C=C1\SC(N(CC)CC)C(=O)N1C` (stereo unspecified) yielded a logD ([15]; pH 7.4) of 2.2.
In the case of `Clc1cccc(-c2cccc(Cl)c2Cl)c1`, the logP [8] is reported as 5.57.
With `C[C@H](O)C(=O)Nc1c(I)c(C(=O)NC(CO)CO)c(I)c(C(=O)NC(CO)CO)c1I` the logD [1] was -2.42.
Work on `C=CCn1c(C)nc2cc(Nc3nc(N4CCCC4)nc4[nH]cnc34)ccc21` yielded a logD [9] of 2.53.
In the case of `CCOC(=O)/C=C1/SC(N2CCCCC2)C(=O)N1CC` (stereo unspecified), the logD ([15]; pH 7.4) is reported as 2.65.
With `CCN1CC(C)n2c(nc3ccccc3c2=O)C1C` (stereo unspecified) the logP [13] was 1.58.
Molecule `CCCN1CCn2c(nc3ccccc3c2=O)C1C` (stereo unspecified) has a logP [13] of 1.07.
With `CC(C)(Cc1ccccn1)c1ccc(F)cc1` the logP [3] was 2.97.
Work on `CCOC(=O)c1ncn2c1CN(C)C(=O)c1cc(F)ccc1-2` yielded a logD [21] of 1.26.
`O=C(Oc1ccc2ccccc2c1)C1OC(O)C(O)C(O)C1O` (stereo unspecified) showed a logP [18] of 1.39.
With `c1ccc(C23CC4CC(CC(C4)C2)C3)cc1` the logP [4] was 5.55.
Work on `CN1CCc2c(cc(O)c(O)c2Cl)C(c2ccccc2)C1` (stereo unspecified) yielded a logD [21] of 1.4.
In the case of `NC(=O)NCCN1CCc2cccc(Cl)c2CC1`, the logP [22] is reported as 2.07.
For `CC1(C)OC2C(CO)OC(n3ccc(=O)n(C(=O)c4ccccc4)c3=O)C2O1` (stereo unspecified), the logP [17] was 0.95.
`CCOC(=O)CN(C(=O)CCl)c1c(CC)cccc1CC` showed a logP [16] of 3.17.
For `CCCCOc1ccc(OCCCN2CCOCC2)cc1`, the logP [20] was 3.56.
`CCCCn1c(C)nc2cc(Nc3nc(Cl)nc4[nH]cnc34)ccc21` gave a logD [9] of 1.28.
Work on `CNC1CCC(c2ccc(Cl)c(Cl)c2)c2ccccc21` (stereo unspecified) yielded a logP [20] of 4.3.
With `c1nnn(C23CC4CC(CC(C4)C2)C3)n1` the logP [4] was 2.95.
In the case of `Clc1cccc(-c2ccccc2Cl)c1`, the logP [8] is reported as 5.02.
With `CC(C)(C)C(=O)OC[C@H]1O[C@@H](n2ccc(N)nc2=O)[C@@H](O)[C@@H]1O` the logD [6] was 0.1.
Molecule `CCOC(=O)CN(C(=O)CCl)c1ccccc1Cl` has a logP [16] of 2.3.
`CN1CCc2cc(Cl)c(O)cc2[C@@H](c2ccccc2)C1` gave a logD [21] of 2.87.
For `O=C(Oc1ccc([N+](=O)[O-])cc1)C1OC(O)C(O)C(O)C1O` (stereo unspecified), the logP [18] was -0.45.
In the case of `O=C1CN=C(c2ccccc2Br)c2cc(Br)ccc2N1`, the logP [19] is reported as 3.3.
With `O=C(O)C(OCc1ccc(Cl)cc1)c1ccccc1` (stereo unspecified) the logD ([12]; pH 3.4) was 2.6.
Work on `CCc1onc(C)c1N=C1C=C(O)C(=O)c2ccccc21` yielded a logP [10] of 2.
Work on `COc1ccc(C2CNC(=O)C2)cc1OC1CCCC1` (stereo unspecified) yielded a logD [21] of 2.17.
`O=C1CN=C(c2cccc(Cl)c2)c2ccc(Br)cc2N1` gave a logP [19] of 3.63.
Work on `CC(C)C(=O)OCC1OC(n2ccc(N)nc2=O)C(O)C1O` (stereo unspecified) yielded a logD [6] of 0.3.
With `c1ccc2nn(C34CC5CC(CC(C5)C3)C4)cc2c1` the logP [4] was 3.68.
In the case of `O=C(Oc1ccc(Cl)cc1)C1OC(O)C(O)C(O)C1O` (stereo unspecified), the logP [18] is reported as 0.45.
In the case of `CC(=O)NC(C)C(=O)NC(Cc1c[nH]cn1)C(=O)NC(C)C(=O)NC(C)(C)C` (stereo not drawn) (Ac-Ala-His-Ala-NHtBu; configuration not given here), the logD [14] is reported as -0.48.
In the case of `CC1c2nc3ccccc3c(=O)n2C(C)CN1C` (stereo unspecified), the logP [13] is reported as 0.44.
`COC(=O)c1cc(OC(=O)N(C)c2ccccc2)ccc1O` showed a logD [5] of 3.13.
Molecule `CCC1ON=C(C)C1N=C1C=C(OC)C(=O)c2ccccc21` (stereo unspecified) has a logP [10] of 2.43.
Molecule `CC1(C)OC2C(CO)OC(n3ccc(=O)[nH]c3=O)C2O1` (stereo unspecified) has a logP [17] of -0.47.
Molecule `CCCCn1c(C)nc2cc(Nc3nc(N4CCCC4)nc4[nH]cnc34)ccc21` has a logD [9] of 1.36.
With `NS(=O)(=O)c1cc2c(cc1Cl)N=C(CSCc1ccccc1)NS2(=O)=O` the logP [20] was 1.73.
For `CCc1onc(C)c1N=C1C=C(Nc2c(C)noc2CC)C(=O)c2ccccc21`, the logP [10] was 2.71.
In the case of `NC(=O)c1cc(-c2ccccc2)nnc1NCCN1CCOCC1`, the logD [11] is reported as 1.86.
